Data published in publication PMC7357032, “Antiparasitic Constituents of Beilschmiedia louisii and Beilschmiedia obscura and Some Semisynthetic Derivatives (Lauraceae)” (Molecules, 2020).
Like-named read-outs stand apart in the source and are kept apart here.

Columns and labels:
[1] = tested on: Plasmodium falciparum strain Pf3D7; assay: In vitro antiplasmodial assay (pLDH assay); details: read-out: IC50 Pf3D7
[2] = Cytotoxicity assay (resazurin); type: cell-based; details: human, compounds and combinations, HeLa cells, read-out: % Cell Viability ± sd Cytotoxicity
Procedure: Human cervix adenocarcinoma cells (HeLa cells) were used to check the toxicity of the crude extract and compounds and their combinations as described by Keusch et al. (1972). Stocks solutions were prepared in DMSO at a concentration of 50 μg/mL for the extracts and 20 μM for compounds, and combinations. To assess the overt cytotoxicity, samples were placed in 96-well plates containing cells for 48 h. The numbers of cells surviving drug treatment were determined using the resazurin based reagent and reading resorufin fluorescence in a Spectramax M3 microplate reader. Results were expressed as % viability-the resorufin fluorescence in compound-treated wells relative to untreated controls. Compounds were tested in duplicate and standard deviations (SD) derived. […] (which induces cell apoptosis) was used as the positive control.

[3] = tested on: Trypanosoma brucei brucei; assay: In vitro antitrypanosomal assay (resazurin viability); details: for antitrypanosomal activity against Tb brucei (in words): in vitro; for IC50: Trypanosoma brucei
[4] = read-out: IC50 Tb brucei, compounds, values given in µg/mL in the text

Row | SMILES | viability at 48 h, 20 µM (stock) [2] [%] | also measured
1 | CCN(CC)CCCC(C)Nc1ccnc2cc(Cl)ccc12 (stereo not drawn) [Chloroquine] | – | IC50 [1]: 0.034 µM
2 | CCCC/C=C\CCCCc1ccccc1 [Compound 3, (5Z) 1-phenyldec-5-ene] | 50.3 ± 8.9 | –
3 | O=C(O)CCCCCCCCCCCCCCc1ccccc1 [Compound 5, 15-phenylpentadecanoic acid] | 76.6 ± 4.1 | –
4 | CCCCCCCCC1C2C=CC3C(C(=O)O)C=CC4CC1C2C43 (stereo not drawn) [Compound 11, beilschmiedic acid E] | 100 ± 5.8 | antitrypanosomal activity against Tb brucei (in words) [3]: inactive
5 | CCCCCCCCC1C2C=CC3C(CO)C=CC4CC1C2C43 (stereo not drawn) [Compound 11a, beilschmiedol A] | 52.6 ± 1.8 | antitrypanosomal activity against Tb brucei (in words) [3]: moderate activity
6 | CCCCCCCC[C@@H]1[C@H]2C=C[C@H]3C(C=O)=CC[C@@H]4C[C@@H]1[C@@H]2[C@H]43 [Compound 11b, beilschmiedal] | 79.6 ± 17.1 | IC50 [3, 4]: 8.3 µg/mL; IC50 [1]: 31.4 µM
7 | CCCCCCCC[C@@H]1[C@H]2C=C[C@H]3C(/C=N/NC(N)=S)=CC[C@@H]4C[C@@H]1[C@@H]2[C@H]43 [Compound 11c, beilschmiecarbazone] | 100 ± 2.8 | –
8 | CCCCCCCCC1C2C=CC3C(COC(=O)c4cc(OC)c(OC)c(OC)c4)C=CC4CC1C2C43 (stereo not drawn) [Compound 11d, beilschmiegallate] | 100 ± 3.4 | –
9 | O=C(O)C[C@@H]1[C@H]2C=C[C@H]3C(c4ccc5c(c4)OCO5)=CC[C@@H]4C[C@@H]1[C@@H]2[C@H]43 [Compound 12, methylenedioxyendiandric acid A] | 100 ± 10.8 | –
10 | CC[C@H](CC[C@@H](C)[C@H]1CC[C@H]2[C@@H]3CC=C4C[C@@H](O)CC[C@]4(C)[C@H]3CC[C@]12C)C(C)C [Compound 13, β-sitosterol] | – | IC50 ([3]; 48 h, read-out: IC50 Tb Brucei, isolated compounds, mixtures and drug standard, dose-response, for 6 + 7 IC50 maximum calculated with the constituent of lowest molecular mass): 9.5 µM
11 | N=C(N)c1ccc(OCCCCCOc2ccc(C(=N)N)cc2)cc1 [Pentamidine, reference compound] | – | IC50 [3, 4]: ~0.01 µg/mL
